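Protocol summary: plate cells (96-well), add compound at 5 concentrations, incubate 48 h, interpolate endpoints linearly. GI50 = concentration required for 50% inhibition of growth.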 Calls of active or inactive are those of the source. Rule as the data show it: active = GI50 up to about 1.1 µM and inactive = higher.
Key:
Assay in all cases: NCI anticancer screen, dose series, 48 h
[1] = tested on: A549
[2] = tested on: ACHN
[3] = tested on: BT-549
[4] = tested on: CCRF-CEM
[5] = tested on: COLO 205
[6] = tested on: HCT-116
[7] = tested on: HOP-92
[8] = tested on: KM12
[9] = tested on: MCF7
[10] = tested on: NCI-H226
[11] = tested on: NCI-H522
[12] = tested on: OVCAR-8
[13] = tested on: PC-3
[14] = tested on: SF-539
[15] = tested on: SK-OV-3
[16] = tested on: SNB-19
[17] = tested on: SNB-75
[18] = tested on: SW-620
[19] = tested on: U-251
[20] = tested on: UACC-62

SMILES | GI50 [1] | GI50 [2] | GI50 [3] | GI50 [4] | GI50 [5] | GI50 [6] | GI50 [7] | GI50 [8] | GI50 [9] | GI50 [10] | GI50 [11] | GI50 [12] | GI50 [13] | GI50 [14] | GI50 [15] | GI50 [16] | GI50 [17] | GI50 [18] | GI50 [19] | GI50 [20]
O=c1[nH]nc(-c2ccccc2)n1/N=C/c1ccc([N+](=O)[O-])o1 | 7.66 µM (inactive) | 2.42 µM (inactive) | 6 µM (inactive) | 1.09 µM (active) | 4.15 µM (inactive) | 1.37 µM (inactive) | 6.71 µM (inactive) | 6.65 µM (inactive) | 2.04 µM (inactive) | 9.44 µM (inactive) | 1.32 µM (inactive) | 3.22 µM (inactive) | 6.35 µM (inactive) | 4.65 µM (inactive) | 9.29 µM (inactive) | 12.6 µM (inactive) | 16 µM (inactive) | 2.49 µM (inactive) | 6.5 µM (inactive) | 5.21 µM (inactive)
COC(CNC(=O)CNC(=O)c1ccc(C(F)(F)F)cc1)OC | > 100 µM (inactive) | > 100 µM (inactive) | > 100 µM (inactive) | > 100 µM (inactive) | > 100 µM (inactive) | > 100 µM (inactive) | > 100 µM (inactive) | > 100 µM (inactive) | > 100 µM (inactive) | > 100 µM (inactive) | > 100 µM (inactive) | > 100 µM (inactive) | > 100 µM (inactive) | > 100 µM (inactive) | > 100 µM (inactive) | 47.9 µM (inactive) | > 100 µM (inactive) | > 100 µM (inactive) | > 100 µM (inactive) | > 100 µM (inactive)
O=C1NC(=O)C(c2c[nH]c3ccccc23)=C1c1cn(C(c2ccccc2)(c2ccccc2)c2ccccc2)cn1 | 3.14 µM (inactive) | 4.8 µM (inactive) | 12.7 µM (inactive) | 3.98 µM (inactive) | 3.73 µM (inactive) | 3.34 µM (inactive) | 7.13 µM (inactive) | 4.06 µM (inactive) | 3.05 µM (inactive) | 5.87 µM (inactive) | 8.75 µM (inactive) | 5.33 µM (inactive) | 2.58 µM (inactive) | 15.4 µM (inactive) | 14.7 µM (inactive) | 11.3 µM (inactive) | 10.2 µM (inactive) | 8.81 µM (inactive) | 4.25 µM (inactive) | 12.5 µM (inactive)
CCC12C=CCN3CCC4(c5cc(C(c6ccc(OC)cc6)C6Cc7ccccc7N6)c(OC)cc5N(C)C4C(O)(C(=O)OC)C1O)C32 (stereo not given) | 20.4 µM (inactive) | 19.2 µM (inactive) | 19.9 µM (inactive) | 3.67 µM (inactive) | 8.36 µM (inactive) | 14.4 µM (inactive) | 2.81 µM (inactive) | 5.89 µM (inactive) | 5.19 µM (inactive) | 32.7 µM (inactive) | 16.4 µM (inactive) | 15.1 µM (inactive) | 12.6 µM (inactive) | 21 µM (inactive) | 29.4 µM (inactive) | 17.9 µM (inactive) | 3.66 µM (inactive) | 21.5 µM (inactive) | 11 µM (inactive) | 11.8 µM (inactive)
O=C(O)c1cccc(CC(Br)C(=O)O)c1 (stereo not given) | > 100 µM (inactive) | > 100 µM (inactive) | > 100 µM (inactive) | > 100 µM (inactive) | > 100 µM (inactive) | > 100 µM (inactive) | > 100 µM (inactive) | > 100 µM (inactive) | > 100 µM (inactive) | > 100 µM (inactive) | > 100 µM (inactive) | > 100 µM (inactive) | > 100 µM (inactive) | > 100 µM (inactive) | > 100 µM (inactive) | > 100 µM (inactive) | > 100 µM (inactive) | > 100 µM (inactive) | > 100 µM (inactive) | > 100 µM (inactive)
